According to patent publication US20240150365A1 (Hotspot Therapeutics, Inc., priority 2022, published 2024):

How the values were obtained:
MALT1 = biological target: T1, MALT1 (Homo sapiens, UniProt Q9UDY8); assay: MALT-1 Fluorogenic Peptide Cleavage Assay (MALT1 inhibition assay); type: biochemical; conditions: Avi-tagged FL MALT-1, Ac-LRSR-AMC peptide substrate, 30 min pre-incubation, 90 min reaction
T1 construct: Avi-tagged FL MALT-1 (Pharmaron, stored at −70° C.); Avi tag
T1 sequence (Q9UDY8 1-824): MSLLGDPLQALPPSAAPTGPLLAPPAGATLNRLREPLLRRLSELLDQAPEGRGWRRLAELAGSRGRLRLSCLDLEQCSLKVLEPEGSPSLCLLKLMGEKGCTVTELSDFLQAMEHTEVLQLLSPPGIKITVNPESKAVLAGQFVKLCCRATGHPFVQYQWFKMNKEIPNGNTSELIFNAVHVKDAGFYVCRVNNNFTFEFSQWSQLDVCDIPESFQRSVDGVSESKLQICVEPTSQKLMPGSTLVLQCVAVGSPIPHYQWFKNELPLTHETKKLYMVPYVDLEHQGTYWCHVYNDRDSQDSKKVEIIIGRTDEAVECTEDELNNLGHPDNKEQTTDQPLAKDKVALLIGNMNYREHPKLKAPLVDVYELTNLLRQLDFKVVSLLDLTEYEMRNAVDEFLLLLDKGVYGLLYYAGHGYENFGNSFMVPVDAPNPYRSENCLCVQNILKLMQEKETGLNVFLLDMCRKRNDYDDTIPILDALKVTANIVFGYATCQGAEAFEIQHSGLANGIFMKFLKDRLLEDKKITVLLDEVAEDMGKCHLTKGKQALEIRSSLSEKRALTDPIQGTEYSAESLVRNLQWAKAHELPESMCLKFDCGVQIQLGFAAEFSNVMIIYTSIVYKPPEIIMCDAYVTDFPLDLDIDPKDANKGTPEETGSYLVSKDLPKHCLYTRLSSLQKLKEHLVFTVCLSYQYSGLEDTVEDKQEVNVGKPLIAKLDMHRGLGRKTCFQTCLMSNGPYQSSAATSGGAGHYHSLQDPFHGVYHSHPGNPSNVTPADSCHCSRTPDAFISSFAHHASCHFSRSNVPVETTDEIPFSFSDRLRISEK
In short: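 Avi-tagged full-length MALT1 pre-incubated 30 min with compound (2% DMSO final), then cleavage of Ac-LRSR-AMC followed over 90 min at room temperature. AMC fluorescence read at 342/441 nm; % inhibition fitted to sigmoidal curves for IC50.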

NF-kB = NF-kB reporter assay in Jurkat cells stimulated with aCD3/aCD28/PMA; type: cell-based; conditions: Homo sapiens, Jurkat, Jurkat cells, 1 hr compound incubation, aCD3/aCD28/PMA stimulation 4 hr, One-Glo readout; read-out: NF-kB Reporter Assay IC50
In short: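 Jurkat cells (25,000/well, serum-free RPMI 1640) preincubated 1 hr at 37° C with serially diluted compound, then stimulated with aCD3/aCD28/PMA (final 5 μg/mL, 5 μg/mL, 0.03 μg/mL) for 4 hr. Reporter luminescence read with One-Glo; IC50 derived.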

Compound | IC50 (MALT1) [µM] | IC50 (NF-kB) [µM]
COc1ccc2cnn(C)c2c1NS(=O)(=O)c1ccc(C(C)(C)O)nc1 [Example I-178, 6-(2-Hydroxypropan-2-yl)-N-(6-Methoxy-1-Methyl-1H-Indazol-7-yl)Pyridine-3-Sulfonamide] | > 2.5 | > 2.5
Cn1c(=O)c2cccc(N)c2n1S(=O)(=O)c1ccc(-n2cc(C(F)(F)F)cn2)nc1 [Example I-179, 7-Amino-2-Methyl-1-((6-(4-(Trifluoromethyl)-1H-Pyrazol-1-yl)Pyridin-3-yl)Sulfonyl)-1,2-Dihydro-3H-Indazol-3-One] | > 2.5 | > 2.5
COc1ncc2nnn(C)c2c1NS(=O)(=O)c1ccc(-n2cc(C(F)(F)F)cn2)nc1 [Example I-180, N-{6-methoxy-1-methyl-[1,2,3]triazolo[4,5-c]pyridin-7-yl}-6-[4-(trifluoromethyl)pyrazol-1-yl]pyridine-3-sulfonamide] | 0.4 to 1 | 1 to 2.5
Cn1[nH]c2c(NS(=O)(=O)c3ccc(-n4cc(C(F)(F)F)cn4)nc3)cccc2c1=O [Example I-181, N-(2-methyl-3-oxo-2,3-dihydro-1H-indazol-7-yl)-6-(4-(trifluoromethyl)-1H-pyrazol-1-yl)pyridine-3-sulfonamide] | > 2.5 | 0.4 to 1
Cn1c(=O)c2c(NS(=O)(=O)c3ccc(-n4cc(C(F)(F)F)cn4)nc3)cccc2n1C [Example I-182, N-(1,2-dimethyl-3-oxo-2,3-dihydro-1H-indazol-4-yl)-6-(4-(trifluoromethyl)-1H-pyrazol-1-yl)pyridine-3-sulfonamide] | > 2.5 | > 2.5
Cc1ncc2cnn(C)c2c1NS(=O)(=O)c1ccc(-n2cc(C(F)(F)F)cn2)nc1 [Example I-189, N-(1,6-dimethyl-1H-pyrazolo[4,3-c]pyridin-7-yl)-6-(4-(trifluoromethyl)-1H-pyrazol-1-yl)pyridine-3-sulfonamide] | 1 to 2.5 | 1 to 2.5
Cn1[nH]c2cccc(NS(=O)(=O)c3ccc(-n4cc(C(F)(F)F)cn4)nc3)c2c1=O [Example I-190, N-(2-methyl-3-oxo-2,3-dihydro-1H-indazol-4-yl)-6-(4-(trifluoromethyl)-1H-pyrazol-1-yl)pyridine-3-sulfonamide] | > 2.5 | > 2.5
COc1ncc2cnn(C)c2c1NS(=O)(=O)c1ccc(-n2cc(F)cn2)nc1 [Example I-193, 6-(4-fluoro-1H-pyrazol-1-yl)-N-(6-methoxy-1-methyl-1H-pyrazolo[4,3-c]pyridin-7-yl)pyridine-3-sulfonamide] | < 0.4 | < 0.4
COc1ncc2cnn(C)c2c1NS(=O)(=O)c1ccc(-n2cc(C(C)C)cn2)nc1 [Example I-194, 6-(4-isopropyl-1H-pyrazol-1-yl)-N-(6-methoxy-1-methyl-1H-pyrazolo[4,3-c]pyridin-7-yl)pyridine-3-sulfonamide] | < 0.4 | < 0.4
COc1ncc2cnn(C)c2c1N(C)S(=O)(=O)c1ccc(-n2ccc(C(F)(F)F)n2)nc1 [Example I-195, N-(6-Methoxy-1-Methyl-1H-Pyrazolo[4,3-C]Pyridin-7-yl)-N-Methyl-6-(3-(Trifluoromethyl)-1H-Pyrazol-1-yl)Pyridine-3-Sulfonamide] | < 0.4 | < 0.4
COc1ncc2cnn(C)c2c1NS(=O)(=O)c1ccc(-n2ccc(C)n2)nc1 [Example I-197, N-{6-methoxy-1-methylpyrazolo[4,3-c]pyridin-7-yl}-6-(3-methylpyrazol-1-yl)pyridine-3-sulfonamide] | < 0.4 | < 0.4
Cn1[nH]c(=O)c2c(NS(=O)(=O)c3ccc(-n4cc(C(F)(F)F)cn4)nc3)cccc21 [Example I-198, N-(1-methyl-3-oxo-2,3-dihydro-1H-indazol-4-yl)-6-(4-(trifluoromethyl)-1H-pyrazol-1-yl)pyridine-3-sulfonamide] | > 2.5 | 1 to 2.5
Cc1ncc2cccc(NS(=O)(=O)c3ccc(-n4cc(C(F)(F)F)cn4)nc3)n12 [Example I-199, N-(3-methylimidazo[1,5-a]pyridin-5-yl)-6-(4-(trifluoromethyl)-1H-pyrazol-1-yl)pyridine-3-sulfonamide] | > 2.5 | 1 to 2.5
COc1ncc2cnn(C)c2c1NS(=O)(=O)c1ccc(-c2cc(C(F)(F)F)n[nH]2)nc1 [Example I-200, N-(6-Methoxy-1-Methyl-1H-Pyrazolo[4,3-C]Pyridin-7-yl)-6-(3-(Trifluoromethyl)-1H-Pyrazol-5-yl)Pyridine-3-Sulfonamide] | < 0.4 | < 0.4
Cn1[nH]c(=O)c2cccc(NS(=O)(=O)c3ccc(-n4cc(C(F)(F)F)cn4)nc3)c21 [Example I-201, N-(1-Methyl-3-Oxo-2,3-Dihydro-1H-Indazol-7-yl)-6-(4-(Trifluoromethyl)-1H-Pyrazol-1-yl)Pyridine-3-Sulfonamide] | > 2.5 | > 2.5
COc1ccc2cnn(C)c2c1NS(=O)(=O)c1ccc(-n2cc(C)n(C)c2=O)nc1 [Example I-202, 6-(3,4-Dimethyl-2-Oxo-2,3-Dihydro-1H-Imidazol-1-yl)-N-(6-Methoxy-1-Methyl-1H-Indazol-7-yl)Pyridine-3-Sulfonamide] | 0.4 to 1 | < 0.4
COc1ccc(Cc2ccc3c(c2N)c(=O)n(S(=O)(=O)c2ccc(-n4cc(C(F)(F)F)cn4)nc2)n3C)cc1 [Example I-203] | > 2.5 | < 0.4
COc1ncc2cnn(C)c2c1NS(=O)(=O)c1ccc(-c2cc(C(F)F)n[nH]2)nc1 [Example I-204, 6-(3-(Difluoromethyl)-1H-Pyrazol-5-yl)-N-(6-Methoxy-1-Methyl-1H-Pyrazolo[4,3-C]Pyridin-7-yl)Pyridine-3-Sulfonamide] | < 0.4 | 1 to 2.5

The remaining lines, values ahead:

IC50 (MALT1) [µM] | IC50 (NF-kB) [µM] | Compound
< 0.4 | < 0.4 | COc1ncc2cnn(C)c2c1N(C)S(=O)(=O)c1ccc(-n2cc(C(F)(F)F)cn2)nc1 [Example I-183, N-(6-methoxy-1-methyl-1H-pyrazolo[4,3-c]pyridin-7-yl)-N-methyl-6-(4-(trifluoromethyl)-1H-pyrazol-1-yl)pyridine-3-sulfonamide]
< 0.4 | < 0.4 | COc1ncc2cnn(C)c2c1NS(=O)(=O)c1ccc(-n2cc(C)cn2)nc1 [Example I-184, N-{6-methoxy-1-methylpyrazolo[4,3-c]pyridin-7-yl}-6-(4-methylpyrazol-1-yl)pyridine-3-sulfonamide]
< 0.4 | < 0.4 | COc1ncc2cnn(C)c2c1NS(=O)(=O)c1ccc(-n2ccc(C3CC3)n2)nc1 [Example I-185, 6-(3-cyclopropyl-1H-pyrazol-1-yl)-N-(6-methoxy-1-methyl-1H-pyrazolo[4,3-c]pyridin-7-yl)pyridine-3-sulfonamide]
< 0.4 | < 0.4 | COc1ncc2cnn(C)c2c1NS(=O)(=O)c1ccc(-c2csc(C)n2)nc1 [Example I-186, N-(6-methoxy-1-methyl-1H-pyrazolo[4,3-c]pyridin-7-yl)-6-(2-methylthiazol-4-yl)pyridine-3-sulfonamide]
< 0.4 | < 0.4 | COc1ncc2cnn(C)c2c1NS(=O)(=O)c1ccc(-n2cc(C3CC3)cn2)nc1 [Example I-187, 6-(4-cyclopropylpyrazol-1-yl)-N-{6-methoxy-1-methylpyrazolo[4,3-c]pyridin-7-yl}pyridine-3-sulfonamide]
< 0.4 | < 0.4 | COc1ccc2ccn(C)c2c1NS(=O)(=O)c1ccc(-n2cc(C(F)(F)F)cn2)nc1 [Example I-188, N-(6-methoxy-1-methyl-1H-indol-7-yl)-6-(4-(trifluoromethyl)-1H-pyrazol-1-yl)pyridine-3-sulfonamide]
< 0.4 | < 0.4 | COc1ccc2cnn(C)c2c1NS(=O)(=O)c1ccc(-n2cc(C(C)(F)F)cn2)nc1 [Example I-191, 6-(4-(1,1-difluoroethyl)-1H-pyrazol-1-yl)-N-(6-methoxy-1-methyl-1H-indazol-7-yl)pyridine-3-sulfonamide]
< 0.4 | < 0.4 | COc1ncc2cnn(C)c2c1NS(=O)(=O)c1ccc(-n2cc(C(F)F)cn2)nc1 [Example I-192, 6-(4-(difluoromethyl)-1H-pyrazol-1-yl)-N-(6-methoxy-1-methyl-1H-pyrazolo[4,3-c]pyridin-7-yl)pyridine-3-sulfonamide]
